Values of other authors in patent US11478524B1, “Methods and compositions for modulating complex mixtures by selective deletion chromatography” (UNIVERSITY OF SOUTH FLORIDA, priority 2017, dated 2022).
Where two headings read alike, the source gives them in different places.

Epigallocatechin-3-gallate [EGCG]
lifespan extension (under heat stress): 13%
effect on longevity (under normal conditions): little effect
lifespan extension (under oxidative stress): 178%
